Legend:
[1] = target: GDP-bound NRAS wild-type protein (Homo sapiens, UniProt P01111); experiment: Binding to NRAS by surface plasmon resonance (SPR), KD and KD ratio to KRAS
Procedure, shortened: (§1)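 Running buffer contained 10 µM GDP and 10 mM MgCl2 to keep RAS in the GDP state, with 4% DMSO at pH 7.4. Compounds were flowed at 100 µL/min in 75 s steps of rising concentration over captured biotin-Avi RAS at 30°C. Sensorgrams were fitted 1:1 for KD.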

[2] = system: human lung cancer strain NCI-H441; assay type: cell-based
Procedure, shortened: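 Step one: dispense the test compound in serial DMSO dilutions. Step three: add the reagent and measure […].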

[3] = target: HRAS wild-type protein (Homo sapiens, UniProt P01112); experiment: Binding to HRAS by surface plasmon resonance (SPR), KD and KD ratio to KRAS
Procedure, shortened: as §1

[4] = ratio of the KD value with respect to GDP-bound NRAS wild-type protein to the KD value with respect to KRAS
[5] = ratio of the KD value with respect to HRAS wild-type protein to the KD value with respect to KRAS

Sequence of GDP-bound NRAS wild-type protein (P01111 whole entry): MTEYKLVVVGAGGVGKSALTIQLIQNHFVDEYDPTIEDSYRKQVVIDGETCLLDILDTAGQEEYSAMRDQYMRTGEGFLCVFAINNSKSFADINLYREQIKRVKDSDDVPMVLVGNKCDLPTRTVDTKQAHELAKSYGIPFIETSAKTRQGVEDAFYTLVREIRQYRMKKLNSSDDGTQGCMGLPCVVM
Sequence of HRAS wild-type protein (P01112 whole entry): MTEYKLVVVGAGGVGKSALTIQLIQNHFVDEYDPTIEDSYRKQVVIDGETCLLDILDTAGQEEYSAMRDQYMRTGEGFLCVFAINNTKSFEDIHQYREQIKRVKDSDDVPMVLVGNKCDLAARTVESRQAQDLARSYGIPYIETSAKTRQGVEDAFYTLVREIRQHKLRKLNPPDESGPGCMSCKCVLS

Row | Compound | IC50 [2] | NRAS /KRAS [1, 4] | HRAS /KRAS [3, 5] | NRAS /KRAS ([1]; ratio of KD value for GDP-bound NRAS wild-type protein to KD value for KRAS (SPR)) | HRAS /KRAS ([3]; ratio of KD value for HRAS wild-type protein to KD value for KRAS (SPR))
1 | CCCN(C)C(=O)[C@@H]1CC(=O)N(C)[C@@H](CC2CCC2)C(=O)N[C@@H]([C@@H](C)CC)C(=O)N(C)CC(=O)N(C)[C@H]2C/C=C\CCN(C2=O)[C@@H](Cc2ccc(C(F)(F)F)cc2)C(=O)N(C)CC(=O)N[C@@H](CCc2cc(F)c(C(F)(F)F)c(F)c2)C(=O)N2C[C@H](OCC)C[C@H]2C(=O)NC2(CCC2)C(=O)N(C)[C@@H](C2CCCC2)C(=O)N1C [PP1705] | 0.008 µM |  |  | AA (a compound having 20 or more is denoted as AA) | A (a compound having 10 or more and less than 20 is denoted as A)
2 | CC[C@H](C)[C@@H]1NC(=O)[C@H](CC)N(C)C(=O)C[C@@H](C(=O)N(C)C)N(CC)C(=O)[C@H](C2CCCC2)N(C)C(=O)C2(CCC2)NC(=O)[C@@H]2CCCCN2C(=O)[C@H](CCc2cc(F)c(C(F)(F)F)c(F)c2)NC(=O)CN(C)C(=O)[C@H](Cc2ccc(C(F)(F)F)cc2)N2CCCC[C@@H](C2=O)N(C)C(=O)CN(C)C1=O [PP0661] | 0.0566 µM | C (A compound having a KD ratio of 0.1 or more and less than 3 is denoted as C) | B (a compound having 3 or more and less than 10 is denoted as B) |  | 
3 | CC[C@H](C)[C@@H]1NC(=O)[C@H](CC(C)C)N(C)C(=O)C[C@@H](C(=O)N2CCOCC2)N(C)C(=O)[C@H](C2CCCC2)N(C)C(=O)C2(CC(F)(F)C2)NC(=O)[C@@H]2CCCN2C(=O)[C@H](CCc2cc(F)c(C(F)(F)F)c(F)c2)NC(=O)CN(C)C(=O)[C@H](Cc2ccc(C(F)(F)F)cc2)N2CCCC[C@@H](C2=O)N(C)C(=O)CN(C)C1=O [PP0562] | 0.0044 µM | B (a compound having 3 or more and less than 10 is denoted as B) | B (a compound having 3 or more and less than 10 is denoted as B) |  | 
4 | CC[C@H](C)[C@@H]1NC(=O)[C@H](CC(C)C)N(C)C(=O)C[C@@H](C(=O)N2CCOCC2)N(C)C(=O)[C@H](C2CCCC2)N(C)C(=O)C2(CCOCC2)NC(=O)[C@@H]2CCCN2C(=O)[C@H](CCc2cc(F)c(C(F)(F)F)c(F)c2)NC(=O)CN(C)C(=O)[C@H](Cc2ccc(C(F)(F)F)cc2)N2CCCC[C@@H](C2=O)N(C)C(=O)CN(C)C1=O [PP0564] | 0.0184 µM | B (a compound having 3 or more and less than 10 is denoted as B) | B (a compound having 3 or more and less than 10 is denoted as B) |  | 

More lines, in order of falling IC50 [2], values ahead:

Row | IC50 [2] | Compound | NRAS /KRAS [1, 4] | HRAS /KRAS [3, 5] | NRAS /KRAS ([1]; ratio of KD value for GDP-bound NRAS wild-type protein to KD value for KRAS (SPR)) | HRAS /KRAS ([3]; ratio of KD value for HRAS wild-type protein to KD value for KRAS (SPR))
5 | 0.0772 µM | CCC[C@H]1C(=O)N[C@@H]([C@@H](C)CC)C(=O)N(C)CC(=O)N(C)[C@H]2C/C=C\CCN(C2=O)[C@@H](CC2CCC(F)(F)CC2)C(=O)N(C)CC(=O)N[C@@H](CCc2ccc(C(F)(F)F)c(OC)c2)C(=O)N2C[C@H](OCC)C[C@H]2C(=O)N(C)C2(CCC2)C(=O)N(C)[C@@H](C(CC)CC)C(=O)N(C)[C@H](C(=O)N(C)C)CC(=O)N1C [PP2345] | A (a compound having 10 or more and less than 20 is denoted as A) | A (a compound having 10 or more and less than 20 is denoted as A) |  | 
6 | 0.0519 µM | CC[C@H](C)[C@@H]1NC(=O)[C@H](C)N(C)C(=O)C[C@@H](C(=O)N(C)C)N(C)C(=O)[C@H](C2CCCC2)N(C)C(=O)C2(CCC2)NC(=O)[C@@H]2CCCN2C(=O)[C@H](CCc2cc(F)c(C(F)(F)F)c(F)c2)NC(=O)CN(C)C(=O)[C@H](Cc2ccc(C(F)(F)F)cc2)N2CCCCC[C@@H](C2=O)N(C)C(=O)CN(C)C1=O [PP0470] | B (a compound having 3 or more and less than 10 is denoted as B) | B (a compound having 3 or more and less than 10 is denoted as B) |  | 
7 | 0.007 µM | C=CCN1CC(=O)N(C)[C@H]2C/C=C\CCN(C2=O)[C@@H](Cc2ccc(C(F)(F)F)cc2)C(=O)N(C)CC(=O)N[C@@H](CCc2cc(F)c(C(F)(F)F)c(F)c2)C(=O)N2C[C@H](OCC)C[C@H]2C(=O)NC2(CC(C)(C)C2)C(=O)N(C)[C@@H](C2CCCC2)C(=O)N(C)[C@H](C(=O)N(C)C)CC(=O)N(C)[C@@H](CCC)C(=O)N[C@@H]([C@@H](C)CC)C1=O [PP2102] | A (a compound having 10 or more and less than 20 is denoted as A) | A (a compound having 10 or more and less than 20 is denoted as A) |  | 
8 | 0.0024 µM | CCO[C@@H]1C[C@H]2C(=O)NC3(CCCC3)C(=O)N(C)[C@@H](C3CCCC3)C(=O)N(C)[C@H](C(=O)N(C)C)CC(=O)N(C)[C@@H](CC(C)C)C(=O)N[C@@H]([C@@H](C)CC)C(=O)N(C)CC(=O)N(C)[C@H]3CCCCN(C3=O)[C@@H](Cc3ccc(C(F)(F)F)cc3)C(=O)N(C)CC(=O)N[C@@H](CCc3cc(F)c(C(F)(F)F)c(F)c3)C(=O)N2C1 [PP0579] | C (A compound having a KD ratio of 0.1 or more and less than 3 is denoted as C) | B (a compound having 3 or more and less than 10 is denoted as B) |  | 
